Measured values published in patent publication US20220226484A1, “THERAPEUTIC PEPTIDES” (COHBAR, INC., priority 2019, published 2022).
Positions of bridges follow the written chain, without caps; N, C: chain ends. Non-standard residues stand in square brackets, D forms with d. Primed or numbered codes have the meaning given here. Chains are numbered I, II in the order given. No end group written: not given here. PEG12′ = not defined here; Nle = CCCC[C@H](N)C(=O)O

Tests used:
3T3-L1 Mouse Adipocytes = test: Insulin-dependent effect on free fatty acid levels in cultured mouse adipocytes; assay type: cell-based; conditions: 3 hours; for Free Fatty Acid Levels, MEAN % ISO, +Insulin: peptide 10 μM + insulin 0.25 nM, percent of isoproterenol (0.1 nM)+insulin (0.25 nM); for Free Fatty Acid Levels, MEAN % ISO, −Insulin: peptide 10 μM alone, percent of isoproterenol (0.1 nM) treated control cells
Description: The effect of the peptides on fatty acid metabolism was assessed in the absence and presence of insulin using an assay of free fatty acid levels in cultured cells such as mouse adipocytes. Peptides were initially prepared as 10 mM stock in DMSO and used at a final concentration of 10 μM (0.1% DMSO). […] Insulin (0.25 nM) was used as a partial inhibitor and insulin (10 nM) was used as a potent inhibitor of isoproterenol stimulated fatty acid production. Mouse 3T3-L1 cells purchased from ZenBio (Research Triangle Park, N.C.) were seeded at 3,000 cells per well on 96-well plates in Pre-Adipocyte Medium (Zen-Bio) and grown to confluence at 37° C. in a humidified atmosphere of 5% CO2/95% air. Two days after confluence, cells were placed in Adipocyte Differentiation Medium (Zen-Bio) and cultured for three additional days at 37° C. in a humidified atmosphere of 5% CO2/95% air. The culture medium was then partially replaced with Adipocyte Maintenance Medium (Zen-Bio) and the cells maintained at 37° C. in a humidified atmosphere of 5% CO2/95% air with partial medium replacement every other day. At 12 day of differentiation, 96-well cultures were transferred to Adipocyte Maintenance Medium without insulin and placed at 37° C. in a humidified atmosphere of 5% CO2/95% air for two days. Following this incubation period, the medium was removed from 14 day differentiated cultures and replaced with Assay Buffer (Zen-Bio) containing peptides (10 μM), insulin (0.25 nM or 10 nM), isoproterenol (0.1 nM) as appropriate. […] isoproterenol was added to all wells except untreated controls. Insulin at 0.1 nM and 10 nM was added to control wells. Peptides (10 μM) in the absence or presence of insulin (0.25 nM) were added to test wells. Cells in the presence of compounds were placed at 37° C. in a humidified atmosphere of 5% CO2/95% air for 3 hours. At the end of the final 3 h incubation, conditioned assay buffer was removed from each well and place in a fresh 96-well plate for quantitation of free fatty acid content. Free fatty acid concentrations in the assay buffer samples were determined using a Free Fatty Acid Assay kit (Zen-Bio) according to the manufacturer's instructions using a Cytation 3 plate reader at 540 nm (BioTek, Winooski, VD. Absorbance values were corrected for untreated background and expressed as a percent of isoproterenol (0.1 nM) treated control cells for peptides alone or isoproterenol (0.1 nM)+insulin (0.25 nM) for peptides in presence of insulin (0.25 nM). Treatment with isoproterenol […] alone was used as the free fatty acid level stimulatory control. The relative standard deviation of the isoproterenol control was <10%. […] Free fatty acid levels for insulin (10 nM) treatment were <5% of the isoproterenol control value. Free fatty acid levels for insulin (0.25 nM) treatment were 60-80% of the isoproterenol control value.

H4IIE Rat Hepatoma Cells = test: Insulin-dependent effect on glucose production by cultured rat liver cells; assay type: cell-based; conditions: 24 hour; for Glucose Levels, MEAN % Control, +Insulin: peptide 10 μM + insulin 800 pM, percent of insulin (800 pM); for Glucose Levels, MEAN % Control, −Insulin: peptide 10 μM alone, percent of untreated control cells
Description: The effect of the peptides on glucose production was assessed in the absence and presence of insulin using an assay of glucose levels in cultured cells such as rat hepatocytes. Peptides were initially prepared as 10 mM stock in DMSO and used at a final concentration of 10 μM (0.1% DMSO). Insulin (800 pM) was used as a partial inhibitor of glucose production. H4-IIE cells purchased from ATCC (Manassas, Va.) were seeded at 100,000 cells/well in standard medium (DMEM/high glucose+10% FBS+1× Glutamax+antibiotics) on 96-well plates and allowed to adhere overnight at 37° C. in a humidified atmosphere of 5% CO2/95% air. Approximately 24 h after seeding, the medium was removed, cells rinsed with glucose free DMEM, and Glucose Production Medium (glucose free DMEM+2 mM sodium pyruvate+10 mM sodium lactate) was added. The cultures were placed at 37° C. in a humidified atmosphere of 5% CO2/95% air overnight. The next morning, the medium was removed and fresh Glucose Production Medium containing compounds was added. Insulin at 800 pM was added to control wells. Peptides (10 μM) in the absence or presence of insulin (800 pM) were added to test wells. Cells in the presence of compounds were placed at 37° C. in a humidified atmosphere of 5% CO2/95% air overnight. After 24 hour incubation, conditioned medium from each well was transferred to a fresh 96-well plate for quantitation of glucose content. Quantitation of glucose levels was determined using an Amplex Red Glucose Assay kit (Abacm; Cambridge, Mass.) according to the manufacturer's instructions using a Cytation 3 plate reader at 570 nm (BioTek, Winooski, Vt.). Absorbance values were expressed as a percent of untreated control cells (maximum glucose production) for peptide alone samples or insulin (800 pM) for peptides in the presence of insulin (800 pM. Glucose levels for insulin (800 pM) treatment were ˜80-90% of the untreated control values. The results are reported in Table 15.

Substance	Free Fatty Acid Levels, MEAN % ISO, +Insulin (3T3-L1 Mouse Adipocytes) [%]	Free Fatty Acid Levels, MEAN % ISO, −Insulin (3T3-L1 Mouse Adipocytes) [%]	Glucose Levels, MEAN % Control, +Insulin (H4IIE Rat Hepatoma Cells) [%]	Glucose Levels, MEAN % Control, −Insulin (H4IIE Rat Hepatoma Cells) [%]	Free Fatty Acid Levels, MEAN % ISO, +Insulin (3T3-L1 Mouse Adipocytes; listed as 5) [%]	Free Fatty Acid Levels, MEAN % ISO, −Insulin (3T3-L1 Mouse Adipocytes; listed as 5) [%]	Glucose Levels, MEAN % Control, +Insulin (H4IIE Rat Hepatoma Cells; listed as 5) [%]	Glucose Levels, MEAN % Control, −Insulin (H4IIE Rat Hepatoma Cells; listed as 5) [%]
MRVIRMCLGVGLLGDLAG [SEQ ID NO: 2]	60.5	98.8	79.7	121	–	–	–	–
R(dA)IR(Nle)SLNVGLLGEL(dA) (R[dA]IR[Nle]SLNVGLLGEL[dA]) [SEQ ID NO: 15]	112.6	97.6	95.2	94.3	–	–	–	–
RVIR(Nle)CLNVGLLGEL(dA)G (RVIR[Nle]CLNVGLLGEL[dA]G) [SEQ ID NO: 6]	66.9	93.6	82.5	109	–	–	–	–
RVIR(Nle)SLNVGLEGEL(dA) (RVIR[Nle]SLNVGLEGEL[dA]) [SEQ ID NO: 14]	71.9	89.9	97.8	104	–	–	–	–
RVIR(Nle)SLNVGLLGEL(dA)G (RVIR[Nle]SLNVGLLGEL[dA]G) [SEQ ID NO: 8]	74.9	69.3	63.5	105	–	–	–	–
RVIRMCLGVGLLGDL(dA)G (RVIRMCLGVGLLGDL[dA]G) [SEQ ID NO: 4]	36.6	92.9	54.3	119	–	–	–	–
RVIRMCLGVGLLGDLAG (disulfide I:6-II:6) [SEQ ID NO: 26]	33.4	93.5	21	114	–	–	–	–
RVIRMCLGVGLLGDLAG [SEQ ID NO: 3]	37.1	98.0	39.9	121	–	–	–	–
RVIRMCLGVGLLGDLAGK{PEG12} (RVIRMCLGVGLLGDLAGK(PEG12′)) [SEQ ID NO: 17]	35.9	102	18.8	105	–	–	–	–
RVIRMCLGVGLLGDLAGK{PEG12} (chain 1 RVIRMCLGVGLLGDLAGK(PEG12′); chain 2 RVIRMCLGVGLLGDLAGK(PEG12′); disulfide I:6-II:6) [SEQ ID NO: 28]	33.4	80.7	23.9	92.0	–	–	–	–
RVIRMCLNNGLLGEL(dA)G (RVIRMCLNNGLLGEL[dA]G) [SEQ ID NO: 9]	41.0	95.2	19.1	103	–	–	–	–
RVIRMCLNNGLNGEL(dA)E (RVIRMCLNNGLNGEL[dA]E) [SEQ ID NO: 23]	43.9	99.4	3.1	36	–	–	–	–
RVIRMCLNVGLLGEL(dA)E (RVIRMCLNVGLLGEL[dA]E) [SEQ ID NO: 12]	41.2	92.8	57.8	107	–	–	–	–
RVIRMCLNVGLLGEL(dA)G [SEQ ID NO: 5] (RVIRMCLNVGLLGEL[dA]G)	–	–	–	–	37.0	94.3	54.5	117
RVIRMCLNVGLNGEL(dA)G (RVIRMCLNVGLNGEL[dA]G) [SEQ ID NO: 11]	44.0	65.5	32.7	105	–	–	–	–
RVIRMCLNVGNLGEL(dA)G (RVIRMCLNVGNLGEL[dA]G) [SEQ ID NO: 10]	63.2	90.7	38	101	–	–	–	–
RVIRMSLNVGLEGEL(dA) (RVIRMSLNVGLEGEL[dA]) [SEQ ID NO: 13]	78.4	89.5	46.8	71.4	–	–	–	–
RVIRMSLNVGLLGEL(dA)G (RVIRMSLNVGLLGEL[dA]G) [SEQ ID NO: 7]	74.5	91.1	74.4	89.2	–	–	–	–
